The values that follow come from patent EP3597653A1, “CYCLIC INHIBITORS OF HEPATITIS B VIRUS” (IRBM S.P.A., priority 2018, dated 2020).

The assay relates to HBV. Put plainly: HBV inhibition assay in HepAD38 cells (extracellular HBV DNA by direct qPCR). The format is cell-based. Conditions: Hepatitis B virus, 96 hours; for pEC50: 8-point dose-response curve, read-out: HBV inh EC50; for inhibition at 1 µM: compound at 1 µM; for inhibition at 1 µM / inhibition at 0.5 µM: relative to non-treated reference, read-out: Anti HBV Activity (conc µM); for inhibition at 0.5 µM: compound at 0.5 µM. The source says: HepAD38 cell line (Ladner et al., Antimicrob Agents Chemother, 1997, 41, 1715-20) was used for HBV inhibition assays. HepAD38 is a subclone, derived from Hepatoblastoma cell line HepG2 (ATCC® Number: HB-8065™), that expresses HBV genome under the control of a tetracycline-responsive promoter in a TET-OFF system: addition of tetracycline suppresses HBV replication, while its removal switches on the process allowing HBV viral particles release in the cell supernatant. HepAD38 cell line is maintained in DMEM/F12, supplemented with 10% of fetal bovine serum, 1% of glutamine, 1% of penicillin/streptomycin, 0.4 mg/ml G418 and 0,3 ug/ml tetracycline. For the HBV inhibition assay, doxycycline-free medium is used in order to allow virion production.
HBV inhibition activity in vitro was performed in 96 multiwell plates. During the initial (primary) screening compounds were first tested in triplicates at concentrations of 0.1µM, 0.5µM amd 1µM. For selected compounds, an 8-point dose-response curve can be obtained using 1:2 serial dilutions (starting from 2.5 µM, 1.25µM or 0.4 µM, depending on the degree of inhibition observed during the primary screening). From the dose-response curves, half maximal effective concentration (EC50) can be calculated (see also below).
In more detail, compounds - typically dissolved in DMSO stock solutions - are diluted to 2x the final desired concentration in 100 µl of the above medium (without doxycycline) and plated in three replicates in the 96-well plates.
Simultaneously, HepAD38 cells - extensively pre-washed in tetracycline-free medium in order to induce HBV production - are suspended at 2*10^4 cells in 100 µl of tetracycline-free medium and added to each well of the plate, to yield a final assay volume of 200 µl DMSO - used for stock solutions and compounds dilutions - which is always present in the assays at a final concentration of 0.5%.
Plates are then incubated 96 hours at 37°C and then subjected to cell viability assay in order to define compounds cytotoxicity and to extracellular HBV quantification in order to evaluate antiviral activity of compounds. Cytotoxicity is assessed by a commercial fluorescence assay that measures the metabolic activity of cells, directly related to cell viability (Cell Titer Blue, Promega). Anti-HBV activity was evaluated by quantification of extracellular HBV DNA with direct qPCR. In particular, supernatant was collected and centrifuged for cell debris clarification, viral DNA was extracted from virions by addition of lysis buffer (1 mM 1,4-dithiothreitol, 0.2% sodium dodecyl sulphate) and incubated at 95°C for 10 min. Samples were then diluted 1:40 and real time PCR amplification was performed with SYBR green assay (Power SYBR™ Green PCR Master Mix-Thermo Fisher Scientific) and specific HBV primer (HBV-DF:5'-[…]-3' (SEQ ID No. 1), HBV-DR:5'-[…]-3' (SEQ ID No. 2)).
All HBV inhibition or antiviral activity data are typically reported in percent (%) relative to a non-treated reference sample. Excel and Graphpad Prism programs are typically used for data elaboration and EC50 calculation.

pEC50: −log10 of the molar value.

Regarding `Cn1cncc1C1Nc2ccc(C(=O)Nc3cc(F)c(F)c(F)c3)cc2S(=O)(=O)N1` (stereo not drawn) [Example E37, 3-(1-methyl-1H-imidazol-5-yl)-N-(3,4,5-trifluorophenyl)-3,4-dihydro-2H-benzo[e][1,2,4]thiadiazine-7-carboxamide 1,1-dioxide], the pEC50 is more than 6.00.
Regarding `Cc1nc(C)c(C2Nc3ccc(C(=O)Nc4ccc(F)c(F)c4)cc3S(=O)(=O)N2)o1` (stereo not drawn) [Example E38, N-(3,4-difluorophenyl)-3-(2,4-dimethyloxazol-5-yl)-3,4-dihydro-2H-benzo[e][1,2,4]thiadiazine-7-carboxamide 1,1-dioxide], the inhibition at 1 µM is more than 50%.
Same read-out and setting: the same measure for `CC1(c2ccncc2)Nc2ccc(C(=O)Nc3cc(F)c(F)c(F)c3)cc2S(=O)(=O)N1` (stereo not drawn) [Example E39, 3-methyl-3-(pyridin-4-yl)-N-(3,4,5-trifluorophenyl)-3,4-dihydro-2H-benzo[e][1,2,4]thiadiazine-7-carboxamide 1,1-dioxide]: more than 50%; for `O=C(Nc1cc(F)c(F)c(F)c1)c1ccc2c(c1)S(=O)(=O)NC(c1cncs1)N2` (stereo not drawn) [Example E40, 3-(thiazol-5-yl)-N-(3,4,5-trifluorophenyl)-3,4-dihydro-2H-benzo[e][1,2,4]thiadiazine-7-carboxamide 1,1-dioxide]: more than 50%; for `O=C(Nc1cc(F)c(F)c(F)c1)c1ccc2c(c1)S(=O)(=O)NC(c1cscn1)N2` (stereo not drawn) [Example E41, 3-(thiazol-4-yl)-N-(3,4,5-trifluorophenyl)-3,4-dihydro-2H-benzo[e][1,2,4]thiadiazine-7-carboxamide 1,1-dioxide]: more than 50%.
The same measure, in the same setting: the same measure for `O=C(Nc1cc(F)c(F)c(F)c1)c1ccc2c(c1)S(=O)(=O)NC(c1ccc(C(F)(F)F)nc1)N2` (stereo not drawn) [Example E42, 3-(6-(trifluoromethyl)pyridin-3-yl)-N-(3,4,5-trifluorophenyl)-3,4-dihydro-2H-benzo[e][1,2,4]thiadiazine-7-carboxamide 1,1-dioxide]: more than 50%; for `O=C(Nc1cc(F)c(F)c(F)c1)c1ccc2c(c1)S(=O)(=O)NC(c1cccs1)N2` (stereo not drawn) [Example E43, 3-(thiophen-2-yl)-N-(3,4,5-trifluorophenyl)-3,4-dihydro-2H-benzo[e][1,2,4]thiadiazine-7-carboxamide 1,1-dioxide]: more than 50%; for `O=C(Nc1cc(F)c(F)c(F)c1)c1ccc2c(c1)S(=O)(=O)NC(c1ccccn1)N2` (stereo not drawn) [Example E44, 3-(pyridin-2-yl)-N-(3,4,5-trifluorophenyl)-3,4-dihydro-2H-benzo[e][1,2,4]thiadiazine-7-carboxamide 1,1-dioxide]: more than 50%.
The same measure, in the same setting: the same measure for `O=C(Nc1cc(F)c(F)c(F)c1)c1ccc2c(c1)S(=O)(=O)NC(c1cnns1)N2` (stereo not drawn) [Example E45, 3-(1,2,3-thiadiazol-5-yl)-N-(3,4,5-trifluorophenyl)-3,4-dihydro-2H-benzo[e][1,2,4]thiadiazine-7-carboxamide 1,1-dioxide]: more than 50%.
For the molecule `O=C(Nc1cc(F)c(F)c(F)c1)c1ccc2c(c1)S(=O)(=O)NC(c1ccn[nH]1)N2` (stereo not drawn) [Example E46, 3-(1H-pyrazol-5-yl)-N-(3,4,5-trifluorophenyl)-3,4-dihydro-2H-benzo[e][1,2,4]thiadiazine-7-carboxamide 1,1-dioxide], the inhibition at 1 µM was more than 50%.
Still for that read-out and setting: the same measure for `O=C(Nc1ccc(F)c(F)c1)c1ccc2c(c1)S(=O)(=O)NC(c1cccnc1)N2` (stereo not drawn) [Example E47, N-(3,4-difluorophenyl)-3-(pyridin-3-yl)-3,4-dihydro-2H-benzo[e][1,2,4]thiadiazine-7-carboxamide 1,1-dioxide]: more than 50%.
The same measure, in the same setting: the same measure for `O=C(Nc1cc(F)c(F)c(F)c1)c1ccc2c(c1)S(=O)(=O)NC(c1cccnc1)N2` (stereo not drawn) [Example E48, 3-(pyridin-3-yl)-N-(3,4,5-trifluorophenyl)-3,4-dihydro-2H-benzo[e][1,2,4]thiadiazine-7-carboxamide 1,1-dioxide]: more than 50%.
As to `O=C(Nc1cc(F)c(F)c(F)c1)c1ccc2c(c1)S(=O)(=O)NC(c1nccs1)N2` (stereo not drawn) [Example E49, 3-(thiazol-2-yl)-N-(3,4,5-trifluorophenyl)-3,4-dihydro-2H-benzo[e][1,2,4]thiadiazine-7-carboxamide 1,1-dioxide], the pEC50 was more than 6.00.
As for `O=C(Nc1ccc(F)c(F)c1)c1ccc2c(c1)S(=O)(=O)NC(c1nccs1)N2` (stereo not drawn) [Example E50, N-(3,4-difluorophenyl)-3-(thiazol-2-yl)-3,4-dihydro-2H-benzo[e][1,2,4]thiadiazine-7-carboxamide 1,1-dioxide], the inhibition at 1 µM was more than 50%.
Same read-out and setting: for `O=C(Nc1cc(F)c(F)c(F)c1)c1ccc2c(c1)S(=O)(=O)NC(c1cnc[nH]1)N2` (stereo not drawn) [Example E51, 3-(1H-imidazol-5-yl)-N-(3,4,5-trifluorophenyl)-3,4-dihydro-2H-benzo[e][1,2,4]thiadiazine-7-carboxamide 1,1-dioxide] the value was less than 50%; for `O=C(Nc1cc(F)c(F)c(F)c1)c1ccc2c(c1)S(=O)(=O)NC(c1ccc(Cl)nc1)N2` (stereo not drawn) [Example E52, 3-(6-chloropyridin-3-yl)-N-(3,4,5-trifluorophenyl)-3,4-dihydro-2H-benzo[e][1,2,4]thiadiazine-7-carboxamide 1,1-dioxide], more than 50%; for `CC1(c2ccc(Cl)cn2)Nc2ccc(C(=O)Nc3cc(F)c(F)c(F)c3)cc2S(=O)(=O)N1` (stereo not drawn) [Example E53, 3-(5-chloropyridin-2-yl)-3-methyl-N-(3,4,5-trifluorophenyl)-3,4-dihydro-2H-benzo[e][1,2,4]thiadiazine-7-carboxamide 1,1-dioxide], more than 50%.
For the molecule `O=C(Nc1cc(F)c(F)c(F)c1)c1ccc2c(c1)S(=O)(=O)NC(c1ncccn1)N2` (stereo not drawn) [Example E54, 3-(pyrimidin-2-yl)-N-(3,4,5-trifluorophenyl)-3,4-dihydro-2H-benzo[e][1,2,4]thiadiazine-7-carboxamide 1,1-dioxide], the inhibition at 0.5 µM was more than 50%.
Same read-out and setting: for `CC1(c2cnccn2)Nc2ccc(C(=O)Nc3cc(F)c(F)c(F)c3)cc2S(=O)(=O)N1` (stereo not drawn) [Example E55, 3-methyl-3-(pyrazin-2-yl)-N-(3,4,5-trifluorophenyl)-3,4-dihydro-2H-benzo[e][1,2,4]thiadiazine-7-carboxamide 1,1-dioxide] the value was more than 50%; for `O=C(Nc1cc(F)c(F)c(F)c1)c1ccc2c(c1)S(=O)(=O)NC1(N2)C(=O)Nc2ncccc21` (stereo not drawn) [Example E57, 2'-oxo-N-(3,4,5-trifluorophenyl)-1',2'-dihydro-2H,4H-spiro[benzo[e][1,2,4]thiadiazine-3,3'-pyrrolo[2,3-b]pyridine]-7-carboxamide 1,1-dioxide], more than 50%; for `O=C(Nc1cc(F)c(F)c(F)c1)c1ccc2c(c1)S(=O)(=O)N([C@H]1CC[C@H](O)CC1)CN2` [Example E58, trans-2-(4-hydroxycyclohexyl)-N-(3,4,5-trifluorophenyl)-3,4-dihydro-2H-benzo[e][1,2,4]thiadiazine-7-carboxamide 1,1-dioxide], less than 50%.
In the case of `O=C(Nc1cc(F)c(F)c(F)c1)c1ccc2c(c1)S(=O)(=O)N([C@H]1CC[C@@H](O)CC1)CN2` [Example E59, cis-2-(4-hydroxycyclohexyl)-N-(3,4,5-trifluorophenyl)-3,4-dihydro-2H-benzo[e][1,2,4]thiadiazine-7-carboxamide 1,1-dioxide], the inhibition at 0.5 µM is less than 50%.
Same read-out and setting: the same measure for `O=C(Nc1cc(F)c(F)c(F)c1)c1ccc2c(c1)S(=O)(=O)N(C1CC1)CN2` [Example E60, 2-cyclopropyl-N-(3,4,5-trifluorophenyl)-3,4-dihydro-2H-benzo[e][1,2,4]thiadiazine-7-carboxamide 1,1-dioxide]: less than 50%; for `O=C(Nc1cc(F)c(F)c(F)c1)c1ccc2c(c1)S(=O)(=O)N(C1CCNCC1)CN2` [Example E61, 2-(piperidin-4-yl)-N-(3,4,5-trifluorophenyl)-3,4-dihydro-2H-benzo[e][1,2,4]thiadiazine-7-carboxamide 1,1-dioxide]: less than 50%.
